Assay results from ChEMBL document CHEMBL1133646 (J Med Chem, 2000).

Columns and labels:
Assay type in all cases: functional
[1] = system: Mus musculus; experiment: Mean day to death of mice at 0 mg/kg/day
[2] = system: Mus musculus; experiment: Mean day to death of mice at 0.1 mg/kg/day
[3] = system: Mus musculus; experiment: Survival rate of mice infected with A/Turkey/Mass/76 XA/Beijing/32/92 (H6N2) virus at a dose of 0 mg/kg/day; 1/9 (1 survived out of 9 mice)
[4] = system: Mus musculus; experiment: Survival rate of mice infected with A/Turkey/Mass/76 XA/Beijing/32/92 (H6N2) virus at a dose of 0.1 mg/kg/day; 7/9 (7 survived out of 9 mice)
[5] = system: Mus musculus; experiment: Survival rate of mice infected with A/Turkey/Mass/76 XA/Beijing/32/92 (H6N2) virus at a dose of 1.0 mg/kg/day; 9/9 (9 survived out of 9 mice)

SMILES: CCC(CC)[C@H](NC(C)=O)[C@@H]1[C@H](O)[C@@H](C(=O)O)C[C@H]1NC(=N)N [PERAMIVIR ANHYDROUS]
- Mean day [1]: 8.8
- Mean day [2]: 9
- Survival [3]: 1
- Survival [4]: <7
- Survival [5]: <9
